Measurements published in publication PMC5882164, “A novel calcimimetic agent, evocalcet (MT-4580/KHK7580), suppresses the parathyroid cell function with little effect on the gastrointestinal tract or CYP isozymes in vivo and in vitro” (PLoS ONE, 2018).
“And” between values parts separate entries of the source, which are not always exact repeats. Equal values may be shown once.

Columns and labels:
serum calcium = assay: 5/6 nephrectomized rats study: serum calcium level; assay type: in vivo, rat; parameters: Serum Ca levels: unit not given here; conditions: 5/6 Nx rats
Procedure: Rats were 5/6 nephrectomized in two steps. Under anesthesia (pentobarbital, 50 mg/kg; intraperitoneally) and analgesia (lidocaine; topically), two-thirds of the left kidney was removed, and then the right kidney was removed after a seven-day interval. Seven days after the completion of 5/6 nephrectomy, the FR-2 diet was changed to a high-phosphate diet, containing 0.6% calcium and 0.9% phosphate (Oriental Yeast Co., Ltd., Tokyo, Japan). Approximately 2 weeks after the initiation of the high-phosphate diet, the 5/6 Nx rats were divided into five groups (n = 12/group) matched in terms of their body weight as well as their blood urea nitrogen (BUN) and serum PTH and calcium levels.
In the single-dose study, blood samples were collected from the tail vein before and at 0.5, 2, 4, 8, 24, 48, and 72 h after the oral administration of vehicle (0.5% methyl cellulose solution) or evocalcet (0.03, 0.1, 0.3, or 1 mg/kg). In the repeated-dose study, vehicle or evocalcet was orally administered to the respective groups once daily for 14 days. Blood samples were obtained from the tail vein before the first administration and after the seventh and last administrations.
The serum PTH level was measured using a Rat Intact PTH ELISA kit (Immutopics, Inc., San Clemente, CA). The serum calcium, phosphate and BUN levels were measured using an auto analyzer (Hitachi High-Technologies Corporation., Tokyo, Japan) or the following test kits: the Calcium E-test WAKO, the Phospha C-test WAKO, or the Blood Urea nitrogen B-test WAKO (Wako Pure Chemical Industries, Ltd., Osaka, Japan).

CYP2C8 = molecular target: T1, CYP2C8 (Homo sapiens, UniProt P10632); assay: CYP inhibition assay in human liver microsomes; assay type: in vitro ADME; conditions: no pre-incubation, read-out: IC50 direct inhibition of CYP2C8
T1 construct: from tissue; host or cells: human liver microsomes
T1 sequence (P10632 1-490): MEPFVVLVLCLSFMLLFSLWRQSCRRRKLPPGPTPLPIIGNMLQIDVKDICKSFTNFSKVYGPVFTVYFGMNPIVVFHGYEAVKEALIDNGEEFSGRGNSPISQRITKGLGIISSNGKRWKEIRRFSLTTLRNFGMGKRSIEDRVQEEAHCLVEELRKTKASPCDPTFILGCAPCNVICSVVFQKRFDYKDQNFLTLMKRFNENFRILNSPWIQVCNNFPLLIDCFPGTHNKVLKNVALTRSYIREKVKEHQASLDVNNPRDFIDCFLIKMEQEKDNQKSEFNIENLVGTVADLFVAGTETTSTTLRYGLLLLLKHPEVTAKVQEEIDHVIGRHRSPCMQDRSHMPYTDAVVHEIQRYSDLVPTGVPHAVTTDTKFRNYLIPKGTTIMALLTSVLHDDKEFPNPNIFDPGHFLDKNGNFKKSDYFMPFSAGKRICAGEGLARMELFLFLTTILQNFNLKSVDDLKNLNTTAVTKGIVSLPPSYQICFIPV
Procedure: The direct inhibition of evocalcet (0.15~50 μM, 6-point concentrations) against the specific activities of 9 CYP isozymes (CYP1A2, CYP2A6, CYP2B6, CYP2C8, CYP2C9, CYP2C19, CYP2D6, CYP2E1, and CYP3A4/5) was examined in human liver microsomes without the pre-incubation of evocalcet, in the presence of the NADPH-generating system. Each CYP substrate was incubated with human liver microsomes in the absence or presence of evocalcet, and the inhibition of evocalcet for each CYP isozyme was measured.

CYP1A2 = molecular target: T2, CYP1A2 (Homo sapiens, UniProt P05177); assay: CYP inhibition assay in human liver microsomes; assay type: in vitro ADME; conditions: no pre-incubation, read-out: IC50 direct inhibition of CYP1A2
T2 sequence (P05177 1-516): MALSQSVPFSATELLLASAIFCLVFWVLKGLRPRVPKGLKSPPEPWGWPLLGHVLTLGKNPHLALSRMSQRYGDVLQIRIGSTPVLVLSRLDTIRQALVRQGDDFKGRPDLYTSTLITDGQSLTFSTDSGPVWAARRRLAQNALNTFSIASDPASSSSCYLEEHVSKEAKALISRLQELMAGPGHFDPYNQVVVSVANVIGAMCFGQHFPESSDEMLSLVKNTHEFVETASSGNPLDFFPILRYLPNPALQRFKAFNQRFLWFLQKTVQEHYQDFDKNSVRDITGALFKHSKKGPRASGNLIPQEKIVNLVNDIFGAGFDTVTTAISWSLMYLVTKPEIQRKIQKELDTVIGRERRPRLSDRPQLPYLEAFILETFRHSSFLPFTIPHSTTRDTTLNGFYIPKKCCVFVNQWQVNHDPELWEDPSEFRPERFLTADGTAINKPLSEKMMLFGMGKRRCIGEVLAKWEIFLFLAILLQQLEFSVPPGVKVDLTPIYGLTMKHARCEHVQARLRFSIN
Procedure: Each CYP substrate was incubated with human liver microsomes in the absence or presence of evocalcet, and the inhibition of evocalcet for each CYP isozyme was measured.

`C[C@@H](N[C@H]1CCN(c2ccc(CC(=O)O)cc2)C1)c1cccc2ccccc12` [evocalcet] was tested, and the “Serum Ca levels after the first administration, Mean” value (shortened to “Serum Ca levels … Mean”) (serum calcium; 0.1 mg/kg, time 8 h, group mean) was 7.285, the “Serum Ca levels after the first administration” value (serum calcium; 0.1 mg/kg, time 8 h, individual rats) was 7.692 and 7.609 and 7.307 and 7.085 and 7.975 and 4.442 and 6.559 and 7.908 and 8.235 and 7.683 and the “Serum Ca levels … Mean” value (serum calcium; 0.1 mg/kg, time 24 h, group mean) was 7.626. The “Serum Ca levels after the first administration” value (serum calcium; 0.1 mg/kg, time 24 h, individual rats) was 7.618 and 8.042 and 7.976 and 7.739 and 7.539 and 7.979 and 6.079 and 7.486 and 8.194 and 7.356, the “Serum Ca levels” value (serum calcium; 0.3 mg/kg, day 0 (before), group mean) was 7.177 and the “Serum Ca levels” value (serum calcium; 0.3 mg/kg, day 0 (before), individual rats, 0.3 mg/kg) was 7.714 and 7.098 and 4.207 and 6.520 and 8.019 and 4.857 and 7.006 and 8.419 and 8.245 and 7.878 and 7.711 and 8.450. For the same molecule, the “Serum Ca levels” value (serum calcium; 0.3 mg/kg, day 7 (24 h after administration), group mean) was 5.744, the “Serum Ca levels” value (serum calcium; 0.3 mg/kg, day 7 (24 h after administration), individual rats, 0.3 mg/kg) was 6.617 and 4.991 and 5.484 and 4.834 and 5.302 and 6.718 and 6.297 and 6.366 and 7.085 and 5.154 and 4.887 and 5.195 and the “Serum Ca levels” value (serum calcium; 0.3 mg/kg, day 14 (24 h after administration), group mean) was 5.948. For the same molecule, the “Serum Ca levels” value (serum calcium; 0.3 mg/kg, day 14 (24 h after administration), individual rats, 0.3 mg/kg) was 6.601 and 5.324 and 6.337 and 4.673 and 5.104 and 7.592 and 6.733 and 6.057 and 5.865 and 5.887 and 5.547 and 5.661, the “Serum Ca levels … Mean” value (serum calcium; 0.3 mg/kg, time 0 h, group mean) was 7.177 and the “Serum Ca levels … Mean” value (serum calcium; 0.3 mg/kg, time 0.5 h, group mean) was 6.778. The “Serum Ca levels … Mean” value (serum calcium; 0.3 mg/kg, time 2 h, group mean) was 6.136, the “Serum Ca levels … Mean” value (serum calcium; 0.3 mg/kg, time 4 h, group mean) was 6.714 and the “Serum Ca levels … Mean” value (serum calcium; 0.3 mg/kg, time 8 h, group mean) was 7.218. For the same molecule, the “Serum Ca levels … Mean” value (serum calcium; 0.3 mg/kg, time 24 h, group mean) was 7.101, the “Serum Ca levels” value (serum calcium; 1 mg/kg, day 0 (before), group mean) was 7.784 and the “Serum Ca levels” value (serum calcium; 1 mg/kg, day 0 (before), individual rats, 1 mg/kg) was 7.396 and 7.591 and 7.831 and 7.728 and 8.433 and 7.868 and 8.231 and 7.824 and 8.217 and 9.292 and 6.900 and 6.102. For the same molecule, the “Serum Ca levels” value (serum calcium; 1 mg/kg, day 7 (24 h after administration), group mean) was 5.027, the “Serum Ca levels” value (serum calcium; 1 mg/kg, day 7 (24 h after administration), individual rats, 1 mg/kg) was 5.540 and 3.798 and 5.148 and 4.511 and 4.963 and 5.487 and 4.665 and 5.044 and 4.307 and 5.493 and 4.570 and 6.793 and the “Serum Ca levels” value (serum calcium; 1 mg/kg, day 14 (24 h after administration), group mean) was 4.801. The “Serum Ca levels” value (serum calcium; 1 mg/kg, day 14 (24 h after administration), individual rats, 1 mg/kg) was 5.359 and 3.730 and 4.903 and 4.736 and 4.928 and 5.192 and 4.708 and 5.906 and 3.598 and 4.859 and 4.220 and 5.475, the “Serum Ca levels … Mean” value (serum calcium; 1 mg/kg, time 0 h, group mean) was 7.784 and the “Serum Ca levels … Mean” value (serum calcium; 1 mg/kg, time 0.5 h, group mean) was 6.460. For the same molecule, the “Serum Ca levels … Mean” value (serum calcium; 1 mg/kg, time 2 h, group mean) was 5.290, the “Serum Ca levels … Mean” value (serum calcium; 1 mg/kg, time 4 h, group mean) was 5.870 and the “Serum Ca levels … Mean” value (serum calcium; 1 mg/kg, time 8 h, group mean) was 6.299. For the same molecule, the “Serum Ca levels … Mean” value (serum calcium; 1 mg/kg, time 24 h, group mean) was 6.253, the “Doses that steadily decreased the serum calcium level” value (serum calcium; once daily oral for 14 days, 24 h after administration on days 7 and 14) was at least 0.3 mg/kg and the “Doses that significantly decreased the serum calcium level” value (serum calcium; single oral dose, vs vehicle group) was at least 0.1 mg/kg. It also gave an IC50 (CYP2C8) of over 50 µM and an IC50 (CYP1A2) of over 50 µM.
